Each structure is given as a SMILES string. Like-named read-outs stand apart in the source and are kept apart here. Some results are limits rather than exact numbers.

Series [1] can be described thus: Microsomal stability (human). The class given is in vitro ADME. The note with it: liver microsomes 0.5 mg/mL; method gives CLint in μL/min/mg protein. Here is the method:
(§1) The master solution was prepared as follows.
(§2) With NADPH: 10 μL of 20 mg/mL liver microsomes and 40 μL of 10 mM NADPH were added to the incubations. The final concentrations of microsomes and NADPH were 0.5 mg/mL and 1 mM, respectively.
(§3) Without NADPH: 10 μL of 20 mg/mL liver microsomes and 40 μL of ultra-pure H2O were added to the incubations. The final concentration of microsomes was 0.5 mg/mL.
(§4) The reaction was started with the addition of 4 μL of 3, 10, 30 and 100 μM test compound solution or control compound solution at the final concentration of 0.03, 0.1, 0.3 and 1 μM and carried out at 37° C.
(§5) Aliquots of 50 μL were taken from the reaction solution at 0, 15, 30, 45 and 60 min. The reaction was stopped by the addition of 4 volumes of cold acetonitrile with IS (100 nM alprazolam, 200 nM labetalol, 200 nM caffeine and 2 μM ketoprofen). Samples were centrifuged at 3, 220 g for 40 minutes. Aliquot of 100 μL of the supernatant was mixed with 100 μL of ultra-pure H2O and then used for LC-MS/MS analysis.
(§6) Peak areas were determined from extracted ion chromatograms. The slope value, k, was determined by linear regression of the natural logarithm of the remaining percentage of the parent drug vs. incubation time curve.
(§7) The in vitro half-life (in vitro t1/2) was determined from the slope value: in vitro t1/2=−(0.693/k) […]

In another series the target is hERG channel (Homo sapiens (Human), UniProt Q12809). Briefly: hERG manual patch clamp. The class given is cell-based. Here is the method: Cell lines and cell culture. HEK 293 cell line stably expressing hERG channel (Cat #K1236) was purchased from Invitrogen. The cells are cultured in 85% DMEM, 10% dialyzed FBS, 0.1 mM NEAA, 25 mM HEPES, 100 U/mL Penicillin-Streptomycin and 5 μg/mL Blasticidin and 400 μg/mL Geneticin. Cells were split using TrypLE™ Express about three times a week, and maintained between ˜40% to […] confluence. Before the assay, the cells were transferred onto the coverslips at 5×10^5 cells/per 6 cm cell culture dish and induced with doxycycline at 1 μg/mL for 48 hours.
Solution preparations. Extracellular solution (in mM): 132 NaCl, 4 KCl, 3 CaCl2, 0.5 MgCl2, 11.1 glucose, and 10 HEPES (pH adjusted to 7.35 with NaOH) Intracellular solution (in mM): 140 KCl, 2 MgCl2, 10 EGTA, 10 HEPES and 5 MgATP (pH adjusted to 7.35 with KOH). […]
Experimental procedure. […] The holding potential was set to −90 mV for 500 ms and the current was recorded at 50 kHz and filtered at 10 kHz. […]
The hERG current was elicited by depolarizing at +30 mV for 4.8 seconds and then the voltage was taken back to −50 mV for 5.2 seconds to remove the inactivation and observe the deactivating tail current. […] The current was recorded for 120 seconds to assess the current stability. […]
Data that met the above criteria for hERG current quality were further analyzed. Percent hERG current inhibition was calculated using the following equation. […]

The nature of series [2]: Microsomal stability (rat). It counts as in vitro ADME. The note with it: liver microsomes 0.5 mg/mL; method gives CLint in μL/min/mg protein. Here is the method:
as §1, §2, §3, §4, §5, §6, §7

Chain of hERG channel (Q12809 whole entry): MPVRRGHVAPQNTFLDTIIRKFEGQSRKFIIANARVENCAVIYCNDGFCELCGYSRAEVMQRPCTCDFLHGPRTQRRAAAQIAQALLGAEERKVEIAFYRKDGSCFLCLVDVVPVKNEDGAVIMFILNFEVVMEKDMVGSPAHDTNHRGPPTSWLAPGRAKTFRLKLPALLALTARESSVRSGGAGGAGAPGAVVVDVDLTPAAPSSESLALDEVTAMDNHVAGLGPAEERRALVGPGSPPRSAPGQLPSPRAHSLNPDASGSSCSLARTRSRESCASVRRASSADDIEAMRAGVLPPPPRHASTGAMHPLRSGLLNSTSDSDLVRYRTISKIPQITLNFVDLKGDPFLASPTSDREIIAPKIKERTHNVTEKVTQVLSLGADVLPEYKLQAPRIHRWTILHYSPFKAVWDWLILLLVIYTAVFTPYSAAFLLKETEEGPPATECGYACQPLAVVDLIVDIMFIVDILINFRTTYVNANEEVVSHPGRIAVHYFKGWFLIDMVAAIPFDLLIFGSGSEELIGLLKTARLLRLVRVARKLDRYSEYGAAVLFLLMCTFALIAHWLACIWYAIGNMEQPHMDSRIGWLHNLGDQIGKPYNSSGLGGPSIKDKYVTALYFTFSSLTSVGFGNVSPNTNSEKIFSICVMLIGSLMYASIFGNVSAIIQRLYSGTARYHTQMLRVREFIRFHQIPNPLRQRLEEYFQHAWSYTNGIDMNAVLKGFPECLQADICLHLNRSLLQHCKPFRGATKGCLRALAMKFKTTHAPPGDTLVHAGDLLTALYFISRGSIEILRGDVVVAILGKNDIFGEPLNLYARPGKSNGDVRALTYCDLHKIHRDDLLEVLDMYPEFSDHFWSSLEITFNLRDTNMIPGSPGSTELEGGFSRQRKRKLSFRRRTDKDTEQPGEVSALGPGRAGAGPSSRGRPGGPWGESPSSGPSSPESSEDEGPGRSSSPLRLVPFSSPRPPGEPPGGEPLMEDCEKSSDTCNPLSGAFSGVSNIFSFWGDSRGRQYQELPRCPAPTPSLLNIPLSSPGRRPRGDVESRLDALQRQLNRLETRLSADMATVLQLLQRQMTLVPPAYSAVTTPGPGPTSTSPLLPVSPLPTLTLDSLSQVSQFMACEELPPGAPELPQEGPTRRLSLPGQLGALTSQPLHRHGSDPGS

`CC(C)(C)NC[C@H](O)c1cccc(C#N)n1` [Compound 03-5, (S)-6-(2-(tert-butylamino)-1-hydroxyethyl)picolinonitrile]: the Microsomal stability, Human in series [1] amounted to 2.96 µL/min/mg protein. Moreover, the IC50 at hERG channel (manual patch clamp, HEK 293 cells, read-out: hERG IC50) was above 30 µM. In addition, the Microsomal stability, Rat in series [2] was found to be 2.53 µL/min/mg protein.
As to `CC(C)(C)NC[C@H](O)c1cccc(C(F)(F)F)n1` [Compound 03-3], the Microsomal stability, Human in series [1] came out at 3.49 µL/min/mg protein. Besides, the IC50 against hERG channel was above 30 µM. This compound came in with a Microsomal stability, Rat in series [2] of 3.48 µL/min/mg protein.

These data come from patent US10947196B2, “Beta adrenergic agonist and methods of using the same” (CURASEN THERAPEUTICS, INC., priority 2019, dated 2021).
